How the values were obtained:
[1] = test system: Tomato; assay: Herbicidal test, pre- and post-emergence; assay type: in vivo; conditions: 10 lb/acre (11.2 kg/ha); scale 0 (no effect) to 3 (complete kill)
[2] = test system: Phaedon cochleariae (mustard beetles); assay: Pest toxicity test; assay type: in vivo; conditions: in vivo
[3] = test system: Pseudomonas syringae; assay: Antibacterial agar test (B6); assay type: cell-based; conditions: 50 ppm; 5 days
[4] = test system: Xanthomonas malvacearum; assay: Antibacterial agar test (B3); assay type: cell-based; conditions: 50 ppm; 5 days
Summary of the method: (§1)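 Bacterial growth on nutrient agar containing 50 ppm final test compound (added from an acetone solution or suspension) was scored 5 days after multipoint inoculation, using graded ratings. Plates were dried overnight before inoculation.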

[5] = test system: Kale; assay: Further herbicidal test, various rates; assay type: in vivo; conditions: 5 lb/acre; scale 0 to 5 (complete kill)
[6] = test system: Plutella maculipennis (diamond back moth larvae); assay: Pest toxicity test; assay type: in vivo; conditions: in vivo
[7] = test system: Carrot; assay: Further herbicidal test, various rates; assay type: in vivo; conditions: 5 lb/acre; scale 0 to 5 (complete kill)
[8] = test system: Xanthomonas oryzae; assay type: cell-based; conditions: 50 ppm; 5 days
[9] = test system: Pea; assay: Further herbicidal test, various rates; assay type: in vivo; conditions: 5 lb/acre; scale 0 to 5 (complete kill)
[10] = test system: Pieris brassicae (cabbage white caterpillars); assay: Pest toxicity test; assay type: in vivo; conditions: 0.1% by weight, 2 days
[11] = test system: Musca domestica (houseflies); assay: Pest toxicity test, contact test; assay type: in vivo; conditions: 0.1% by weight; milk/sugar; 2 days; flies sprayed directly
[12] = test system: Aedes aegypti (mosquito larvae); assay: Pest toxicity test; assay type: in vivo; conditions: 0.01% by weight; water; 1 day
[13] = test system: Tetranychus telarius (red spider mites, eggs); assay: Pest toxicity test; assay type: in vivo; conditions: 0.1% by weight; French bean; 3 days
[14] = test system: Venturia inaequalis (apple); assay: Fungicidal test against foliar disease G (foliage spray plus soil drench); assay type: in vivo; conditions: 100 ppm spray and drench; 21 days
Description: This Example illustrates the fungicidal properties of compounds used as active ingredients in the compositions of the invention. The compounds were tested against a wide variety of foliar fungal diseases of plants. In the test, a composition comprising an aqueous solution or suspension of the test compound was sprayed on to the foliage or uninfected plants; the soil in which the plants were growing was also drenched with the composition. The compositions used for spraying and drencing contained 100 parts per million (ppm.) of the test compound except where otherwise stated in the table of results below. After spraying and drenching, the plants were then exposed to infection with the diseases it was desired to control, along with control plants not treated with the compound. After a period of days, depending upon the particular disease, the extent of the disease was visually assessed, as a percentage of the disease established upon the control plants which had not been treated with the compound under test, according to the grading scheme below
In Table 2 below the names of the disease is given in the first column, and in the second column is given the time which elapsed between exposing the plants to infection and assessing the amount of disease.

[15] = test system: Oat; assay: Further herbicidal test, various rates; assay type: in vivo; conditions: 5 lb/acre; scale 0 to 5 (complete kill)
[16] = test system: Onion; assay: Further herbicidal test, various rates; assay type: in vivo; conditions: 5 lb/acre; scale 0 to 5 (complete kill)
[17] = test system: larvae of the blowfly (Lucilia serrata); assay: Insecticidal test on blowfly larvae on treated filter paper; assay type: in vivo; parameters: key: 5 represents inseccticidal activity equal to that of the known insecticide; 6 represents activity 10 times that of the standard; conditions: scale of 1 to 6; filter paper with horse serum
[18] = test system: Aedes aegypti (mosquito adults); assay: Pest toxicity test; assay type: in vivo; conditions: 0.01% by weight; plywood; 1 day
[19] = test system: Tetranychus telarius (red spider mites, adults); assay: Pest toxicity test; assay type: in vivo; conditions: 0.1% by weight; French bean; 3 days
[20] = test system: Erwinia carotovora; assay: Antibacterial agar test (B4); assay type: cell-based; conditions: 50 ppm; 5 days
[21] = test system: Agrobacterium tumifaciens; assay: Antibacterial agar test (B1); assay type: cell-based; conditions: 50 ppm; 5 days
[22] = test system: Streptomyces scabies; assay: Antibacterial agar test (B7); assay type: cell-based; conditions: 50 ppm; 5 days
[23] = test system: Sugar beet; assay: Further herbicidal test, various rates; assay type: in vivo; conditions: 5 lb/acre; scale 0 to 5 (complete kill)
[24] = test system: Maize; assay: Herbicidal test, pre- and post-emergence; assay type: in vivo; conditions: 10 lb/acre (11.2 kg/ha); scale 0 (no effect) to 3 (complete kill)
[25] = test system: Rice; assay: Further herbicidal test, various rates; assay type: in vivo; conditions: 5 lb/acre; scale 0 to 5 (complete kill)
[26] = test system: Lettuce; assay: Herbicidal test, pre- and post-emergence; assay type: in vivo; conditions: 10 lb/acre (11.2 kg/ha); scale 0 (no effect) to 3 (complete kill)
[27] = test system: Aphis fabae; assay: Pest toxicity test; assay type: in vivo; conditions: 0.1% by weight; broad bean; 2 days
[28] = test system: Wheat; assay: Herbicidal test, pre- and post-emergence; assay type: in vivo; conditions: 10 lb/acre (11.2 kg/ha); scale 0 (no effect) to 3 (complete kill)
[29] = test system: Megoura viceae; assay: Pest toxicity test; assay type: in vivo; conditions: 0.1% by weight; broad bean; 2 days
[30] = test system: Barley; assay: Further herbicidal test, various rates; assay type: in vivo; conditions: 5 lb/acre; scale 0 to 5 (complete kill)
[31] = test system: Corynebacterium michiganense; assay: Antibacterial agar test (B2); assay type: cell-based; conditions: 50 ppm; 5 days
Summary of the method: as §1

Structure (SMILES): N#Cc1c(F)c(F)c(Nc2c(Cl)c(F)nc(F)c2Cl)c(F)c1F [Compound 19, 4(4-Cyano-2,3,5,6-tetrafluoroanilino)-3,5-dichloro-2,6-difluoropyridine]
- Damage to plants, post-emergence [1]: 3
- Damage to plants, pre-emergence [1]: 3
- Mortality grading (kill) [2]: 0 (key: O represents less than 30% kill; 1 represents 30 - 49% kill; 2 represents 60 - 90% kill; 3 represents over 90% kill; C indicates a chemosterilant effect.; A indicates an antifeeding effect.)
- Antibacterial activity grading B6 [3]: 3 (0 to 5)
- Antibacterial activity grading B3 [4]: 3 (0 to 5)
- Damage to plants, post-emergence [5]: 3
- Mortality grading (kill) [6]: 0 (key: O represents less than 30% kill; 1 represents 30 - 49% kill; 2 represents 60 - 90% kill; 3 represents over 90% kill; C indicates a chemosterilant effect.; A indicates an antifeeding effect.)
- Damage to plants, post-emergence [7]: 0
- Antibacterial activity grading B5 [8]: 3 (0 to 5)
- Damage to plants, post-emergence [9]: 0
- Mortality grading (kill) [10]: 2 (2 represents 60 - 90% kill)
- Mortality grading (kill), contact test [11]: 3 (3 represents over 90% kill)
- Mortality grading (kill) [12]: 3 (3 represents over 90% kill)
- Mortality grading (kill) [13]: 3 (3 represents over 90% kill)
- Amount of disease grading, disease G [14]: 3 (0 to 5)
- Damage to plants, post-emergence [15]: 0
- Damage to plants, post-emergence [16]: 1
- Activity relative to lindane [17]: 5
- Mortality grading (kill) [18]: 3 (3 represents over 90% kill)
- Mortality grading (kill) [19]: 3 (3 represents over 90% kill)
- Antibacterial activity grading B4 [20]: 3 (0 to 5)
- Antibacterial activity grading B1 [21]: 3 (0 to 5)
- Antibacterial activity grading B7 [22]: 3 (0 to 5)
- Damage to plants, post-emergence [23]: 2
- Damage to plants, post-emergence [24]: 1
- Damage to plants, pre-emergence [24]: 3
- Damage to plants, post-emergence [25]: 2
- Damage to plants, post-emergence [26]: 3
- Damage to plants, pre-emergence [26]: 3
- Mortality grading (kill) [27]: 3 (3 represents over 90% kill)
- Damage to plants, post-emergence [28]: 2
- Damage to plants, pre-emergence [28]: 3
- Mortality grading (kill) [29]: 3 (3 represents over 90% kill)
- Damage to plants, post-emergence [30]: 2
- Antibacterial activity grading B2 [31]: 3 (0 to 5)

Source: patent publication US3965109A, “Certain aryl amino pyridines” (priority 1971, dated 1976)
